Conditions: Table S2: compounds exhibiting moderate to high PAMPA-BBB permeability
In the case of COC(=O)c1c(C)c2c(c(C)c1O)OC(=O)c1c(C)c(Cl)c(O)c(Cl)c1O2 [NCGC00095464-04], the “PAMPA-BBB Pe” value is reported as 281 10^-6 cm/sec.
For COC(=O)c1c(OC)cc2c(c1C)Oc1c(Cl)c(O)c(Cl)c(C)c1C(=O)O2 [NCGC00095466-04], the “PAMPA-BBB Pe” value was 27 10^-6 cm/sec.
For COc1ccc(-c2coc3cc(O)ccc3c2=O)c(O)c1O [NCGC00095474-02], the “PAMPA-BBB Pe” value was 14 10^-6 cm/sec.
With CCOC(=O)c1c(C)cc(O)c(C=O)c1O [NCGC00095517-01] the “PAMPA-BBB Pe” value was 110 10^-6 cm/sec.
With CCOC(=O)c1c(C)cc(OC)cc1O [NCGC00095529-01] the “PAMPA-BBB Pe” value was 290 10^-6 cm/sec.
For COc1cc2c(cc1OC)C(=O)OC2 [NCGC00095581-04], the “PAMPA-BBB Pe” value was 12 10^-6 cm/sec.
For CC(=O)Oc1ccc(/C=C/c2cc(OC(C)=O)cc(OC(C)=O)c2)cc1 [NCGC00095675-03], the “PAMPA-BBB Pe” value was 200 10^-6 cm/sec.
For COc1cc(OC)c2c(c1)OC(c1ccccc1)CC2=O (stereo not shown) [NCGC00142553-05], the “PAMPA-BBB Pe” value was 176 10^-6 cm/sec.
For CCCCCc1c2c(cc(O)c1C(=O)O)OC(=O)c1cc(C(=O)CCCC)c(OC)cc1O2 [NCGC00160140-01], the “PAMPA-BBB Pe” value was 120 10^-6 cm/sec.
For COc1ccc([C@@H](C)C(=O)c2ccc(O)cc2O)cc1 [NCGC00160149-03], the “PAMPA-BBB Pe” value was 345 10^-6 cm/sec.
With COc1cc2c(cc1OC)-c1cc3cc(OC)c(OC)cc3c(=O)n1CC2 [NCGC00160189-01] the “PAMPA-BBB Pe” value was 232 10^-6 cm/sec.
For COc1cc(=O)n(C)c2c(OCC3OC(C)(C)OC3(C)C)cccc12 (stereo not shown) [NCGC00160200-01], the “PAMPA-BBB Pe” value was 106 10^-6 cm/sec.
For COc1cccc2c(=O)c3ccoc3n(C)c12 [NCGC00160208-01], the “PAMPA-BBB Pe” value was 54 10^-6 cm/sec.
In the case of CN(C)CCc1cc2c(c3c1ccc1ccccc13)OCO2 [NCGC00160247-01], the “PAMPA-BBB Pe” value is reported as 27 10^-6 cm/sec.
With C/C=C/c1ccc(OC(C)[C@@H](O)c2ccc(O)c(OC)c2)c(OC)c1 (stereo partly shown) [NCGC00160251-01] the “PAMPA-BBB Pe” value was 150 10^-6 cm/sec.
With COc1ccc(C(=O)OC2CC3CC[C@H](C2)N3C(C)=O)cc1OC (stereo partly shown) [NCGC00160255-01] the “PAMPA-BBB Pe” value was 22 10^-6 cm/sec.

Same assay, conditions: Table S3: compounds exhibiting low PAMPA-BBB permeability
In the case of COc1ccc(C(=O)CC(=O)O)c2c1C=CC(C)(C)O2 [NCGC00074767-03], the “PAMPA-BBB Pe(10^-6 cm/sec)” value is reported as <1 10^-6 cm/sec.
With O=C(O)c1cc2ccccc2[nH]1 [NCGC00094957-03] the “PAMPA-BBB Pe(10^-6 cm/sec)” value was <1 10^-6 cm/sec.
For Cc1cc(O)c(C)c(O)c1C(=O)O [NCGC00095485-03], the “PAMPA-BBB Pe(10^-6 cm/sec)” value was <1 10^-6 cm/sec.
With O=C/C=C/c1ccc(O)cc1 [NCGC00095729-01] the “PAMPA-BBB Pe(10^-6 cm/sec)” value was 4.5 10^-6 cm/sec.
For COc1ccc(C2CC(=O)c3ccc(OC)cc3O2)cc1 (stereo not shown) [NCGC00095734-01], the “PAMPA-BBB Pe(10^-6 cm/sec)” value was 5.8 10^-6 cm/sec.
With Cc1cc(O)c(C=O)c(O)c1C(=O)O [NCGC00095742-01] the “PAMPA-BBB Pe(10^-6 cm/sec)” value was 2.7 10^-6 cm/sec.
For COc1cc(C/C=C\c2ccccc2)c(OC)cc1O [NCGC00160148-01], the “PAMPA-BBB Pe(10^-6 cm/sec)” value was 1.3 10^-6 cm/sec.
For O=C(NC[C@H](O)c1ccccc1)c1ccccc1 [NCGC00160191-01], the “PAMPA-BBB Pe(10^-6 cm/sec)” value was <1 10^-6 cm/sec.
In the case of COc1c(O)cc2c(=O)oc3c(OC)c(O)cc4c(=O)oc1c2c34 [NCGC00160203-01], the “PAMPA-BBB Pe(10^-6 cm/sec)” value is reported as <1 10^-6 cm/sec.
In the case of COc1cc2oc(=O)c3c4c(cc5ccc(c1CCN(C)C)c2c53)OCO4 [NCGC00160212-01], the “PAMPA-BBB Pe(10^-6 cm/sec)” value is reported as <1 10^-6 cm/sec.
In the case of COc1c2ccoc2nc2c(OC)c(O[C@@H]3O[C@H](C)[C@@H](O)[C@@H](O)[C@H]3O)ccc12 [NCGC00160235-01], the “PAMPA-BBB Pe(10^-6 cm/sec)” value is reported as <1 10^-6 cm/sec.
For Cn1c2c(c(=O)c3ccccc31)C[C@@H](O)C(C)(C)O2 [NCGC00160238-01], the “PAMPA-BBB Pe(10^-6 cm/sec)” value was <1 10^-6 cm/sec.
In the case of COc1ccc([C@@H]2[C@@H](O)[C@H](O)[C@@H](C)N2C)cc1OC [NCGC00160242-01], the “PAMPA-BBB Pe(10^-6 cm/sec)” value is reported as 1.3 10^-6 cm/sec.
For O=C1N[C@@H](Cc2c[nH]c3ccccc23)C(=O)N[C@H]1Cc1c[nH]c2ccccc12 [NCGC00160254-01], the “PAMPA-BBB Pe(10^-6 cm/sec)” value was <1 10^-6 cm/sec.
For C/C=C(\C)C(=O)O[C@H]1CC(C)=C2C(=O)C=C(C)C2[C@@H]2OC(=O)[C@@](C)(OC(=O)C=C(C)C)C21 (stereo partly shown) [NCGC00160270-01], the “PAMPA-BBB Pe(10^-6 cm/sec)” value was 5.7 10^-6 cm/sec.

Reference: publication PMC11876671, “Investigating blood–brain barrier penetration and neurotoxicity of natural products for central nervous system drug development” (Scientific Reports, 2025)
